Experimental data as given in patent US4252788A, “Dental composition for preventing and inhibiting dental caries” (Toyo Seiyaku Kasei Co., Ltd., priority 1979, dated 1981).

Assays:
[1] = Ability to inhibit decalcification of the hard tissue (dissolved calcium from human dentin powder in acid solution)
Description: The ability to inhibit decalcification of the hard tissue was estimated according to the method described in Nishino. Osaka University Shigaku Zasshi, Vol. 14, page 1 (1969). That is, firstly, a certain amount of human dentin powder was treated with a composition (aqueous solution of a molybdate compound) to be tested for certain minutes and then unbonded excess components were removed by washing with water to obtain a sample powder. Then, the sample powder was treated with an acid solution (decalcification) and the amount of calcium in the solution, which was dissolved in the solution by action of the acid, was determined (sample calcium content). Similarly, untreated dentin powder was added to an acid solution and the amount of calcium in the acid solution was determined (control calcium content). From these values, a inhibition rate of decalcification was calculated as follows: [formula]

[2] = In vivo inhibition of dental caries in rats on cariogenic diet inoculated with Streptococcus mutans; parameters: species or system Male Sprague-Dawley rats; settings: for Average caries score (± S.E.), Dm (moderate dental caries) / Average caries score (± S.E.), Ds (slight dental caries) / Average caries score (± S.E.), Dx (extensive dental caries) / Inhibition rate of dental caries, Dm (moderate dental caries) / Inhibition rate of dental caries, Ds (slight dental caries) / Inhibition rate of dental caries, Dx (extensive dental caries): 8 weeks
Description: Further, the ability of the composition of the present invention to inhibit dental caries was tested in vivo as follows:
45 Male Sprague-Dawley rats (18 days old) were divided into three groups (15 rats/group). These rats were kept with the following cariogenic diet and deionized water during the test period (8 weeks).
0.2 ml of a culture broth, which was prepared by anaerobic cultivation of Streptococcus mutans in brain-heart-infusion broth at 37° C. for 24 hours, was orally administered to each rat once a day for 5 days. On the first, 7th, 14th, 21st, 28th and 35th days of the test period, 10% solution of (NH4)2 MoO2 F4 in deionized water (pH 7.5) was applied twice to mandibular molar of each rat of the first group with a cotton applicator and dried for 5 minutes. Likewise, 2% solution of NaF in deionized water (pH 3.6) was applied to each rat of the second group. As a control, mere deionized water was also applied to each rat of the third group. After 8 weeks, rats were sacrificed and mandibula of each rat was isolated and autoclaved at 121° C. for 5 minutes to remove gingiva and the like attached thereto. After drying, the severity of dental caries of each isolated mandibular molar was estimated with a caries score according to the method described in P. H. Keyes, J. Dent. Res., […], 1088-1099 (1958). In Tables 3 and 4, symbols of the severity of dental caries mean as follows:
Dm: moderate dental caries (dental caries extends to a quarter to three quarters part between enamel and dental pulp); and
Dx: extensive dental caries (dental caries extends to more than three quarters part between enamel and dental pulp).
The inhibition rate of dental caries is calculated as follows: [formula]

mice = test: LD50 in mice; format: in vivo
Source text: Further, the dental composition of the present invention is useful from a viewpoint of toxicity since the molybdate compounds used in the present invention have toxicity as low as that of other medicaments commonly used for inhibition of dental caries.

[3] = tested on: protease (collagenase or trypsin); test: Ability to inhibit digestion of the soft tissue (human decalcified dentin powder in opaque agar plate, clear zone with protease); format: biochemical; settings: sodium fluoride
Description: The ability to inhibit digestion of the soft tissue was estimated according to the method described in Yanagida et al, Shonishikagaku Zasshi, Vol. 9, page 39 (1971). That is, various molybdate compounds (Na2 MoO2 F4, K2 MoO2 F4, (NH4)2 MoO2 F4, Na2 MoO4 or K2 MoO4) were dissolved in deionized water in various concentrations to obtain various compositions to be tested. A certain amount of human decalcified dentin powder was treated with each of the above prepared compositions for certain minutes and then unbonded excess components were removed by dialysis to obtain a sample powder. Then, an opaque agar plate was prepared from a mixture of agar and the sample powder, and a protease (collagenase or trypsin) was added to the plate. The inhibiting ability was estimated by observing whether a clear zone was formed on the plate or not (the clear zone is formed by dissolution of the powder with the enzyme, and the formation thereof means digestion of the soft tissue).

[4] = 0.5 hr decalcification, Mo 1%, pH 3
[5] = 0.5 hr decalcification, Mo 1%, pH 5
[6] = 1 hr decalcification, Mo 1%, pH 3
[7] = 1 hr decalcification, Mo 1%, pH 5
[8] = 3 hrs decalcification, Mo 1%, pH 3
[9] = 3 hrs decalcification, Mo 1%, pH 5
[10] = 5 hrs decalcification, Mo 1%, pH 3
[11] = 5 hrs decalcification, Mo 1%, pH 5
[12] = 1st group, 10% solution, pH 7.5
[13] = 0.5 hr decalcification, Mo 4%, pH 7
[14] = 1 hr decalcification, Mo 4%, pH 7
[15] = 3 hrs decalcification, Mo 4%, pH 7
[16] = 5 hrs decalcification, Mo 4%, pH 7

SMILES	Inhibition rate of decalcification [1, 4]	Inhibition rate of decalcification [1, 5]	Inhibition rate of decalcification [1, 6]	Inhibition rate of decalcification [1, 7]	Inhibition rate of decalcification [1, 8]	Inhibition rate of decalcification [1, 9]	Inhibition rate of decalcification [1, 10]	Inhibition rate of decalcification [1, 11]	Inhibition rate of decalcification [1, 13]	Inhibition rate of decalcification [1, 14]	Inhibition rate of decalcification [1, 15]	Inhibition rate of decalcification [1, 16]	also measured
[NH4+].[NH4+].[O]=[Mo-2](=[O])([F])([F])([F])[F] [(NH4)2 MoO2 F4, ammonium dioxotetrafluoromolybdate]	44.43%	44.43%	34.60%	45.45%	36.47%	42.39%	37.27%	43.12%	–	–	–	–	Average caries score (± S.E.), Dm (moderate dental caries) [2, 12]: 0.7 ± 0.2; Average caries score (± S.E.), Ds (slight dental caries) [2, 12]: 3.9 ± 0.6; Average caries score (± S.E.), Dx (extensive dental caries) [2, 12]: 0.2 ± 0.2; Inhibition rate of dental caries, Dm (moderate dental caries) [2, 12]: 82.9%; Inhibition rate of dental caries, Ds (slight dental caries) [2, 12]: 54.7%; Inhibition rate of dental caries, Dx (extensive dental caries) [2, 12]: 93.8%; Dental caries inhibitory effect (in words) ([2]; Tables 3 and 4): excellent dental caries inhibitory effect; Inhibition rate of dental caries compared with NaF (in words) ([2]; at any severity): extremely superior to that of the composition containing NaF; Inhibition of moderate and extensive dental caries (in words) ([2]; scores of Dm and Dx in Table 3): moderate and extensive dental caries are almost inhibited; LD50 (p.o.) (mice): 124 mg/kg
[K+].[K+].[O]=[Mo](=[O])([O-])[O-] [K2 MoO4, potassium orthomolybdate]	–	–	–	–	–	–	–	–	36.30%	38.64%	43.55%	36.24%	Inhibition rate of decalcification ([1]; 0.5 hr decalcification, Mo 4%, pH 3): 30.80%; Inhibition rate of decalcification ([1]; 1 hr decalcification, Mo 4%, pH 3): 33.33%; Inhibition rate of decalcification ([1]; 3 hrs decalcification, Mo 4%, pH 3): 35.42%; Inhibition rate of decalcification ([1]; 5 hrs decalcification, Mo 4%, pH 3): 34.52%
[Na+].[Na+].[O]=[Mo-2](=[O])([F])([F])([F])[F] [Na2 MoO2 F4, sodium dioxotetrafluoromolybdate]	63.30%	62.39%	64.65%	50.51%	66.67%	49.59%	66.28%	49.43%	–	–	–	–	–
[Na+].[Na+].[O]=[Mo](=[O])([O-])[O-] [Na2 MoO4, sodium orthomolybdate]	–	–	–	–	–	–	–	–	44.04%	42.17%	33.80%	35.42%	Inhibition rate of decalcification ([1]; 0.5 hr decalcification, Mo 4%, pH 5): 45.61%; Inhibition rate of decalcification ([1]; 1 hr decalcification, Mo 4%, pH 5): 47.60%; Inhibition rate of decalcification ([1]; 3 hrs decalcification, Mo 4%, pH 5): 49.25%; Inhibition rate of decalcification ([1]; 5 hrs decalcification, Mo 4%, pH 5): 47.82%
O=P([O-])([O-])[O-].[Na+].[Na+].[Na+].[O]=[Mo](=[O])=[O].[O]=[Mo](=[O])=[O].[O]=[Mo](=[O])=[O].[O]=[Mo](=[O])=[O].[O]=[Mo](=[O])=[O].[O]=[Mo](=[O])=[O].[O]=[Mo](=[O])=[O].[O]=[Mo](=[O])=[O].[O]=[Mo](=[O])=[O].[O]=[Mo](=[O])=[O].[O]=[Mo](=[O])=[O].[O]=[Mo](=[O])=[O] [Na3 PO4 . 12MoO3, sodium phosphorus molybdate]	42.20%	49.90%	42.42%	33.21%	41.11%	30.78%	40.94%	30.85%	–	–	–	–	–
[F-].[Na+] [NaF, sodium fluoride, reference compound]	–	–	–	–	–	–	–	–	–	–	–	–	Inhibition of protease digestion (in words) [3]: does not inhibit protease digestion of the soft tissue; Inhibition of protease digestion (in words) ([3]; listed as sodium fluoride): no inhibition of protease digestion; Inhibition rate of decalcification ([1]; 0.5 hr decalcification, reference NaF 2%, pH 5): 43.91%; Inhibition rate of decalcification ([1]; 0.5 hr decalcification, reference NaF 2%, pH 7): 41.94%; Inhibition rate of decalcification ([1]; 1 hr decalcification, reference NaF 2%, pH 5): 40.66%; Inhibition rate of decalcification ([1]; 1 hr decalcification, reference NaF 2%, pH 7): 36.36%; Inhibition rate of decalcification ([1]; 3 hrs decalcification, reference NaF 2%, pH 5): 47.97%; Inhibition rate of decalcification ([1]; 3 hrs decalcification, reference NaF 2%, pH 7): 36.59%; Inhibition rate of decalcification ([1]; 5 hrs decalcification, reference NaF 2%, pH 5): 38.76%; Inhibition rate of decalcification ([1]; 5 hrs decalcification, reference NaF 2%, pH 7): 36.93%; Average caries score (± S.E.), Dm (moderate dental caries) ([2]; 2nd group, 2% solution, pH 3.6): 2.3 ± 0.5; Average caries score (± S.E.), Ds (slight dental caries) ([2]; 2nd group, 2% solution, pH 3.6): 6.9 ± 0.8; Average caries score (± S.E.), Dx (extensive dental caries) ([2]; 2nd group, 2% solution, pH 3.6): 1.1 ± 0.4; Inhibition rate of dental caries, Dm (moderate dental caries) ([2]; 2nd group, 2% solution, pH 3.6): 43.9%; Inhibition rate of dental caries, Ds (slight dental caries) ([2]; 2nd group, 2% solution, pH 3.6): 19.8%; Inhibition rate of dental caries, Dx (extensive dental caries) ([2]; 2nd group, 2% solution, pH 3.6): 65.6%
O.O=P(O)(O)O.[O]=[Mo](=[O])=[O].[O]=[Mo](=[O])=[O].[O]=[Mo](=[O])=[O].[O]=[Mo](=[O])=[O].[O]=[Mo](=[O])=[O].[O]=[Mo](=[O])=[O].[O]=[Mo](=[O])=[O].[O]=[Mo](=[O])=[O].[O]=[Mo](=[O])=[O].[O]=[Mo](=[O])=[O].[O]=[Mo](=[O])=[O].[O]=[Mo](=[O])=[O] [P2 O5 . 24MoO3, phosphomolybdic acid]	58.32%	–	52.02%	–	54.24%	–	43.12%	–	45.22%	44.82%	47.39%	44.61%	–
